Experimental data as given in ChEMBL document CHEMBL1201861, “Genomics of Drug Sensitity in Cancer screening data, Wellcome Trust Sanger Institute”.
Where a SMILES comes first, the peptide text is derived from it. The star is where a group is joined. Cbz = O=C(OCc1ccccc1)*

Columns and labels:
Assay type in all cases: functional, cell-based
[1] = test system: Calu-1; test: SANGER: Inhibition of human Calu-1 cell growth in a cell viability assay.
[2] = test system: Caov-4; test: cells; details: Homo sapiens
Description: SANGER: Inhibition of human Caov-4 cell growth in a cell viability assay.

[3] = test system: DMS-53; test: cells; details: Homo sapiens;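 also: cell viability assay measuring growth inhibition of human DMS-53 cells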
Description: SANGER: Inhibition of human DMS-53 cell growth in a cell viability assay.

[4] = test system: ECC12; test: cells; details: Homo sapiens
Description: SANGER: Inhibition of human ECC12 cell growth in a cell viability assay.

[5] = test system: EFE-184; test: cells; details: Homo sapiens
Description: SANGER: Inhibition of human EFE-184 cell growth in a cell viability assay.

[6] = test system: HCC1143; test: cells; details: Homo sapiens;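 also: growth inhibition of human HCC1143 cells, read out with a cell viability assay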
Description: SANGER: Inhibition of human HCC1143 cell growth in a cell viability assay.

[7] = test system: IPC-298; test: SANGER: Inhibition of human IPC-298 cell growth in a cell viability assay.
[8] = test system: NCI-H1618; test: cells; details: Homo sapiens;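 also: growth inhibition of human NCI-H1618 cells, measured by a cell viability assay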
Description: SANGER: Inhibition of human NCI-H1618 cell growth in a cell viability assay.

[9] = test system: NCI-H2227; test: cells; details: Homo sapiens;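 also: growth inhibition of the human cell line, read out with a cell viability assay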
Description: SANGER: Inhibition of human NCI-H2227 cell growth in a cell viability assay.

[10] = test system: NCI-H838; test: cells; details: Homo sapiens;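 also: growth inhibition of human NCI-H838 cells, read out by a cell viability assay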
Description: SANGER: Inhibition of human NCI-H838 cell growth in a cell viability assay.

[11] = test system: PLC-PRF-5; test: cells; details: Homo sapiens;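 also: growth inhibition of human PLC-PRF-5 cells, read out with a viability assay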
Description: SANGER: Inhibition of human PLC-PRF-5 cell growth in a cell viability assay.

[12] = test system: RT-4; test: SANGER: Inhibition of human RT4 cell growth in a cell viability assay.
[13] = test system: SNG-M; test: cells; details: Homo sapiens
Description: SANGER: Inhibition of human SNG-M cell growth in a cell viability assay.

[14] = test system: SNU-475; test: cells; details: Homo sapiens
Description: SANGER: Inhibition of human SNU-475 cell growth in a cell viability assay.

[15] = test system: C-4-II; test: SANGER: Inhibition of human C-4-II cell growth in a cell viability assay.
[16] = test system: TT; test: cells; details: Homo sapiens
Description: SANGER: Inhibition of human TT cell growth in a cell viability assay.

[17] = test system: COLO 205; test: cells; details: Homo sapiens
Description: SANGER: Inhibition of human COLO-205 cell growth in a cell viability assay.

[18] = test system: ECC10; test: cells; details: Homo sapiens;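 also: growth inhibition of ECC10 cells, read out by a cell viability assay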
Description: SANGER: Inhibition of human ECC10 cell growth in a cell viability assay.

[19] = test system: EPLC-272H; test: cells; details: Homo sapiens
Description: SANGER: Inhibition of human EPLC-272H cell growth in a cell viability assay.

[20] = test system: H-EMC-SS; test: cells; details: Homo sapiens
Description: SANGER: Inhibition of human H-EMC-SS cell growth in a cell viability assay.

[21] = test system: H9; test: cells; details: Homo sapiens
Description: SANGER: Inhibition of human H9 cell growth in a cell viability assay.

[22] = test system: LU-135; test: cells; details: Homo sapiens
Description: SANGER: Inhibition of human LU-135 cell growth in a cell viability assay.

[23] = test system: NCI-H1666; test: cells; details: Homo sapiens;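 also: growth inhibition of the cell line, read out with a cell viability assay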
Description: SANGER: Inhibition of human NCI-H1666 cell growth in a cell viability assay.

[24] = test system: NCI-H1975; test: cells; details: Homo sapiens
Description: SANGER: Inhibition of human NCI-H1975 cell growth in a cell viability assay.

[25] = test system: NCI-H2029; test: cells; details: Homo sapiens;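 also: Read-out is a viability assay on the cultured cells, and IC50 is the concentration that suppresses cell growth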
Description: SANGER: Inhibition of human NCI-H2029 cell growth in a cell viability assay.

[26] = test system: OC-314; test: cells; details: Homo sapiens
Description: SANGER: Inhibition of human OC-314 cell growth in a cell viability assay.

[27] = test system: RH-18; test: cells; details: Homo sapiens, Rh18;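 also: growth inhibition of human RH-18 cells, read out with a cell viability assay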
Description: SANGER: Inhibition of human RH-18 cell growth in a cell viability assay.

[28] = test system: SW 1116; test: cells; details: Homo sapiens;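 also: growth inhibition of SW1116 cells, read out with a cell viability assay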
Description: SANGER: Inhibition of human SW1116 cell growth in a cell viability assay.

[29] = test system: SW900; test: cells; details: Homo sapiens;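 also: IC50 is the concentration that inhibits SW900 cell growth, measured by a cell viability assay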
Description: SANGER: Inhibition of human SW900 cell growth in a cell viability assay.

[30] = test system: BALL-1; test: cells; details: Homo sapiens;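 also: growth inhibition of BALL-1 cells, read out with a cell viability assay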
Description: SANGER: Inhibition of human BALL-1 cell growth in a cell viability assay.

[31] = test system: BT-549; test: cells; details: Homo sapiens
Description: SANGER: Inhibition of human BT-549 cell growth in a cell viability assay.

[32] = test system: TI-73; test: cells; details: Homo sapiens;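 also: cell viability assay measuring how much compounds suppress growth of the cultured cell line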
Description: SANGER: Inhibition of human TI-73 cell growth in a cell viability assay.

[33] = test system: CRO-AP2; test: SANGER: Inhibition of human CRO-AP2 cell growth in a cell viability assay.
[34] = test system: EW-12; test: SANGER: Inhibition of human EW-12 cell growth in a cell viability assay.
[35] = test system: NCI-H128; test: SANGER: Inhibition of human NCI-H128 cell growth in a cell viability assay.
[36] = test system: NCI-H2107; test: SANGER: Inhibition of human NCI-H2107 cell growth in a cell viability assay.
[37] = test system: SKM-1; test: SANGER: Inhibition of human SKM-1 cell growth in a cell viability assay.
[38] = test system: CP67-MEL; test: SANGER: Inhibition of human CP67-MEL cell growth in a cell viability assay.
[39] = test system: TC-YIK; test: SANGER: Inhibition of human TC-YIK cell growth in a cell viability assay.

SMILES	IC50 [1]	IC50 [2]	IC50 [3]	IC50 [4]	IC50 [5]	IC50 [6]	IC50 [7]	IC50 [8]	IC50 [9]	IC50 [10]	IC50 [11]	IC50 [12]	IC50 [13]	IC50 [14]	IC50 [15]	IC50 [16]	IC50 [17]	IC50 [18]	IC50 [19]	IC50 [20]	further results
COC(=O)[C@H](CCSC)NC(=O)c1ccc(NC[C@@H](N)CS)cc1-c1ccccc1	> 1020 nM	> 1020 nM	> 1020 nM	> 1020 nM	> 1020 nM	> 1020 nM	> 1020 nM	> 1020 nM	> 1020 nM	> 1020 nM	> 1020 nM	> 1020 nM	> 1020 nM	> 1020 nM	> 1020 nM	> 1020 nM	> 1020 nM				
O=S(=O)(O)c1ccc2cc(/N=N/c3cc(S(=O)(=O)O)c4cccnc4c3O)ccc2c1	> 16000 nM	> 16000 nM	> 16000 nM	> 16000 nM	> 16000 nM	> 16000 nM	> 16000 nM	> 16000 nM	> 16000 nM	> 16000 nM	> 16000 nM	> 16000 nM	> 16000 nM	> 16000 nM	> 16000 nM	> 16000 nM	> 16000 nM				
CN(NC(=O)CC(=O)NN(C)C(=S)c1ccccc1)C(=S)c1ccccc1 [ELESCLOMOL]																		> 200 nM	29.1 nM	3.68 nM	IC50 [21]: 58.1 nM; IC50 [22]: > 200 nM; IC50 [23]: > 200 nM; IC50 [24]: > 200 nM; IC50 [25]: > 200 nM; IC50 [26]: 33.5 nM; IC50 [27]: 74.2 nM; IC50 [28]: > 200 nM; IC50 [29]: 62.1 nM; IC50 [30]: > 200 nM; IC50 [31]: 15.8 nM; IC50 [32]: 15.2 nM
Nc1ccccc1NC(=O)c1ccc(CNC(=O)OCc2cccnc2)cc1 [ENTINOSTAT]				701 nM					3020 nM												IC50 [33]: 169 nM; IC50 ([34]; Homo sapiens, EW-12): > 5000 nM; IC50 ([35]; Homo sapiens, NCI-H128): > 5000 nM; IC50 [36]: 1360 nM; IC50 ([37]; Homo sapiens, SKM-1): > 5000 nM
Cc1ccc(NC(=O)c2ccc(CN3CCN(C)CC3)cc2)cc1Nc1nccc(-c2cccnc2)n1 [IMATINIB]																					IC50 [38]: > 2000 nM; IC50 [33]: > 2000 nM; IC50 ([34]; Homo sapiens, EW-12): > 2000 nM; IC50 ([35]; Homo sapiens, NCI-H128): > 2000 nM; IC50 [36]: > 2000 nM; IC50 ([37]; Homo sapiens, SKM-1): > 2000 nM
CC(C)C[C@@H](C=O)NC(=O)[C@H](CC(C)C)NC(=O)[C@H](CC(C)C)NC(=O)OCc1ccccc1 [MG-132] (Cbz-Leu-Leu-Leu-aldehyde)				> 1000 nM					> 1000 nM												IC50 [38]: 267 nM; IC50 ([34]; ew-12): > 1000 nM; IC50 ([35]; nci-h128): > 1000 nM; IC50 [36]: > 1000 nM; IC50 ([37]; skm-1): > 1000 nM; IC50 [39]: > 1000 nM
Cc1ccc(C(=O)Nc2ccc(CN3CCN(C)CC3)c(C(F)(F)F)c2)cc1C#Cc1cnc2cccnn12 [PONATINIB]	> 512 nM	> 512 nM	> 512 nM	> 512 nM	> 512 nM	> 512 nM	> 512 nM	> 512 nM	> 512 nM	> 512 nM	> 512 nM	451 nM	> 512 nM	> 512 nM	> 512 nM	> 512 nM	> 512 nM				
CC1=C(/C=C/C(C)=C/C=C/C(C)=C/C(=O)O)C(C)(C)CCC1 [TRETINOIN]																		2380 nM	> 10000 nM	> 10000 nM	IC50 [22]: > 10000 nM; IC50 [23]: > 10000 nM; IC50 [24]: > 10000 nM; IC50 [25]: > 10000 nM; IC50 [26]: > 10000 nM; IC50 [27]: > 10000 nM; IC50 [28]: > 10000 nM; IC50 [29]: > 10000 nM; IC50 [30]: > 10000 nM; IC50 [31]: > 10000 nM; IC50 [32]: > 10000 nM
NC(=O)c1ccc(N(C(N)=O)c2c(F)cccc2F)nc1-c1ccc(F)cc1F [VX-702]																		654 nM	> 2000 nM	> 2000 nM	IC50 [22]: > 2000 nM; IC50 [23]: > 2000 nM; IC50 [24]: > 2000 nM; IC50 [25]: > 2000 nM; IC50 [26]: > 2000 nM; IC50 [27]: > 2000 nM; IC50 [28]: > 2000 nM; IC50 [29]: > 2000 nM; IC50 [30]: > 2000 nM; IC50 [31]: > 2000 nM; IC50 [32]: > 2000 nM
